In assay [1] the target is Voltage-dependent L-type calcium channel subunit alpha-1C (Rattus norvegicus, UniProt P22002). Format: functional.
Assay [2] deals with T1, Type-1 angiotensin II receptor (Homo sapiens, UniProt P30556).
T1 sequence (P30556 whole entry): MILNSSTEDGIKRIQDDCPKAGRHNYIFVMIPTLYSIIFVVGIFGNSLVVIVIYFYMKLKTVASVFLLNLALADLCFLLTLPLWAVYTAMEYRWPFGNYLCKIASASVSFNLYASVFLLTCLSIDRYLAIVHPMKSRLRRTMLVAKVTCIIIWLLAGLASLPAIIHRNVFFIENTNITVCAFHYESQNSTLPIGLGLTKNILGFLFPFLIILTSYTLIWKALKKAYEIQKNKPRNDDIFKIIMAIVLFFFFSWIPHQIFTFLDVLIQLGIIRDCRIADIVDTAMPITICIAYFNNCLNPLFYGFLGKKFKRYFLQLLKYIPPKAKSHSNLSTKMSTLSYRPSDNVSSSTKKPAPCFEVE

Assay [3] deals with Voltage-gated inwardly rectifying potassium channel KCNH2 (Homo sapiens, UniProt Q12809). Format: functional. Particulars: read-out: AC50.
Sequence of Voltage-gated inwardly rectifying potassium channel KCNH2 (Q12809 whole entry): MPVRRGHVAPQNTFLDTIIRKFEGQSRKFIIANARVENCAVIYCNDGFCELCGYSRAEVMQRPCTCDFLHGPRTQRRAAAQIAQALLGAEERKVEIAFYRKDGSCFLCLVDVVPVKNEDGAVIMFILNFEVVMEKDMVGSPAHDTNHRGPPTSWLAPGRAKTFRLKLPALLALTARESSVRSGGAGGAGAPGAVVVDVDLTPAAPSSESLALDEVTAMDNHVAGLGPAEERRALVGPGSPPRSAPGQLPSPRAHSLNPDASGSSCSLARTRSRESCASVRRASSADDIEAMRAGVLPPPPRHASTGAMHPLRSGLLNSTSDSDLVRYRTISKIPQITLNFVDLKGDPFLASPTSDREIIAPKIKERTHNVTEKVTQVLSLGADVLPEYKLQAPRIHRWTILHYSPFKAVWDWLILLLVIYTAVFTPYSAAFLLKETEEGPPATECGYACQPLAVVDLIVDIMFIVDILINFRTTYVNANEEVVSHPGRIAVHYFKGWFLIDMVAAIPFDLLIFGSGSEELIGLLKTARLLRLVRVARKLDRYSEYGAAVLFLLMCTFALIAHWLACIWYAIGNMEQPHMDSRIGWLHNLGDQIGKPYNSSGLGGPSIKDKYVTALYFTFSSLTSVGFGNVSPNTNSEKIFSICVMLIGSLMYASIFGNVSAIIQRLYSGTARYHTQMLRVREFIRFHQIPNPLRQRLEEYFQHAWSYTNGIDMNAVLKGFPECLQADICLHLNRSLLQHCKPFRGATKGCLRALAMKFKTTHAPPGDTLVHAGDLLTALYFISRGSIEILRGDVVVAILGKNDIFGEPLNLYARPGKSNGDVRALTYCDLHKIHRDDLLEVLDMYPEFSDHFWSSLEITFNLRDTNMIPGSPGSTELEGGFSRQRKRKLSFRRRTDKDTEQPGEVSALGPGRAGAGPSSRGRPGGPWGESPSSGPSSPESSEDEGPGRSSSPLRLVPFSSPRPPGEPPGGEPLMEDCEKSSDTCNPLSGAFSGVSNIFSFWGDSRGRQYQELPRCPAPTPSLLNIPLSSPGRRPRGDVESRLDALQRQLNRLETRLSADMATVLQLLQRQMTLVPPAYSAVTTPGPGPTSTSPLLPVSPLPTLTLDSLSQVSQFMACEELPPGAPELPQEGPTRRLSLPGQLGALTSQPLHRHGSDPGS
Assay [4] concerns the target Kappa-type opioid receptor (Homo sapiens, UniProt P41145).
The target of assay [5] is D(3) dopamine receptor (Homo sapiens, UniProt P35462).
The target in assay [6] is T2, Muscarinic acetylcholine receptor M1 (Homo sapiens, UniProt P11229).
T2 sequence (P11229 whole entry): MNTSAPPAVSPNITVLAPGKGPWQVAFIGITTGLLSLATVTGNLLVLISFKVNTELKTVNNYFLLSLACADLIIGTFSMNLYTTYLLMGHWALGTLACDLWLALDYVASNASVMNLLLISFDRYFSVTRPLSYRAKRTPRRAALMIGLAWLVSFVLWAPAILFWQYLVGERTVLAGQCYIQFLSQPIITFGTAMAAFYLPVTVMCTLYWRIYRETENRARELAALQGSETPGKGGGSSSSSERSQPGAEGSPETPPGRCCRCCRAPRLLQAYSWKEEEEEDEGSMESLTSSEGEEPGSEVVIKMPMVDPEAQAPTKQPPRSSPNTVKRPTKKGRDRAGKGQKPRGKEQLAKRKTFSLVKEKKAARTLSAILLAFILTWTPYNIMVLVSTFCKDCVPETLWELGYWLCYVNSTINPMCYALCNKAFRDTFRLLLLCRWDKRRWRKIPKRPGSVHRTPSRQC
Format: functional.

Assay [7] has as its target T3, Alpha-2A adrenergic receptor (Homo sapiens, UniProt P08913).
T3 sequence (P08913 whole entry): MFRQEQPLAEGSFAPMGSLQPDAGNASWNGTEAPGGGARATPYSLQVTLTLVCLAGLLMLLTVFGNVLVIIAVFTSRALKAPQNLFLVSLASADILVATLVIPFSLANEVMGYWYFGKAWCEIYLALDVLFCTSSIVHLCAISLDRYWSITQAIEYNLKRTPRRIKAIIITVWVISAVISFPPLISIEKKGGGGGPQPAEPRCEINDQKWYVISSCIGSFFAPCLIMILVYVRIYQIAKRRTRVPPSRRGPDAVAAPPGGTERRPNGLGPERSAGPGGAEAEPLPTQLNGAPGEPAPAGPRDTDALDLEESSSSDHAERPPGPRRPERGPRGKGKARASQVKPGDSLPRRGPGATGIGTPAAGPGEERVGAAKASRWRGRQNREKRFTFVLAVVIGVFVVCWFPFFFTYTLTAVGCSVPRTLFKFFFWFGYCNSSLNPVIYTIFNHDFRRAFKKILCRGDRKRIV
Format: functional, cell-based.

The target in assay [8] is T4, Gamma-aminobutyric acid receptor subunit alpha-1 (Rattus norvegicus, UniProt P62813).
The target of assay [9] is Sodium-dependent dopamine transporter (Homo sapiens, UniProt Q01959).
In assay [10] the target is Growth hormone secretagogue receptor type 1 (Homo sapiens, UniProt Q92847).
Sequence of Growth hormone secretagogue receptor type 1 (Q92847 whole entry): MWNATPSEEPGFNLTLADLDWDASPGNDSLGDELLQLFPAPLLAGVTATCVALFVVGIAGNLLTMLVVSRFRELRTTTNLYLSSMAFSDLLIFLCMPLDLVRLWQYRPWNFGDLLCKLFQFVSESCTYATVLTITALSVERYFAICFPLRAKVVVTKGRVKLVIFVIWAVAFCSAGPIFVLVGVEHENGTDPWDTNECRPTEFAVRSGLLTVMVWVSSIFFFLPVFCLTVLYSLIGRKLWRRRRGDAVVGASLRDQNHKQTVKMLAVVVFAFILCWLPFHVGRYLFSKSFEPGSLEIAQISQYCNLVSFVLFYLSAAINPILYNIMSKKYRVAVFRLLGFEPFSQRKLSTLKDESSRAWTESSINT
Assay [11] deals with Vasopressin V1a receptor (Homo sapiens, UniProt P37288).
Assay [12] addresses T5, 5-hydroxytryptamine receptor 3A (Homo sapiens, UniProt P46098).
T5 sequence (P46098 whole entry): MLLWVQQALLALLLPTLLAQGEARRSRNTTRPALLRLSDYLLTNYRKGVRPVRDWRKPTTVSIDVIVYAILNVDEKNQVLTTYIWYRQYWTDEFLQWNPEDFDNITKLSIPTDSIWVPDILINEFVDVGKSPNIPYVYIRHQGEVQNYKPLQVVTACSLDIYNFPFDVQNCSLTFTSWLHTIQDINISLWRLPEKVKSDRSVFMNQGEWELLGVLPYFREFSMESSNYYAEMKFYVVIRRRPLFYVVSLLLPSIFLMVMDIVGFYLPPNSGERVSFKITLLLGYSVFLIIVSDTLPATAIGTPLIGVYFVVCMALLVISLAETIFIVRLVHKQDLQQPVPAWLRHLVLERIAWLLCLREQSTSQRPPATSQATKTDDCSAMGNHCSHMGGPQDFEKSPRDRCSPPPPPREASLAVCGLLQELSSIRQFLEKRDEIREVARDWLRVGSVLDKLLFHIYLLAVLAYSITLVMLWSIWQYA
Format: functional.

In assay [13] the target is D(1A) dopamine receptor (Homo sapiens, UniProt P21728). Format: functional, cell-based.
In assay [14] the target is T4, Gamma-aminobutyric acid receptor subunit alpha-1. Format: functional.
For assay [15], the target named is Beta-2 adrenergic receptor (Homo sapiens, UniProt P07550).
Sequence of Beta-2 adrenergic receptor (P07550 whole entry): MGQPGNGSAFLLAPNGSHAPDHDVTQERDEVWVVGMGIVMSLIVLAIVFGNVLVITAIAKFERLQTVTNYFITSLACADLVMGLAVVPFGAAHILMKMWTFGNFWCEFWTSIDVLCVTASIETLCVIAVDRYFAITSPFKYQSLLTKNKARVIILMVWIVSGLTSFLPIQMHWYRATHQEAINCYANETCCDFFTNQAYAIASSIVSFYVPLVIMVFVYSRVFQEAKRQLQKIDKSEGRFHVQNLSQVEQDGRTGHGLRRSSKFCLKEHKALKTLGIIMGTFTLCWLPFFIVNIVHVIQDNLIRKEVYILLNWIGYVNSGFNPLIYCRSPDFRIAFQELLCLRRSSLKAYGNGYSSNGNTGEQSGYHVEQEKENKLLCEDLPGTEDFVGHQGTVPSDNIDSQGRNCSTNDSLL
For assay [16], the target named is Cannabinoid receptor 1 (Homo sapiens, UniProt P21554). Format: functional, cell-based.
Sequence of Cannabinoid receptor 1 (P21554 whole entry): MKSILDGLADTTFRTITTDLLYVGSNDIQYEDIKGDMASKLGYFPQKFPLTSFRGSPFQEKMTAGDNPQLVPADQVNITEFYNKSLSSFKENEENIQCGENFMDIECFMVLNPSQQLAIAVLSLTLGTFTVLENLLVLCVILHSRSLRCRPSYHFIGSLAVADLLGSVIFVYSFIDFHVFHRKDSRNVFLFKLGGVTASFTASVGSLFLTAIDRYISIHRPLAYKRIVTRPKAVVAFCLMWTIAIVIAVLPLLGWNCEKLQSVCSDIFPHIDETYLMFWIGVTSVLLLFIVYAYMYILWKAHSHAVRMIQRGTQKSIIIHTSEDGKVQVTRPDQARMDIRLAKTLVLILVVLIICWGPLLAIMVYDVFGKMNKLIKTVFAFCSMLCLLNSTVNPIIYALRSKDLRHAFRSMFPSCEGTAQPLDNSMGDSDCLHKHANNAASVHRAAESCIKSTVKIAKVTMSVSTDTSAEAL
Note: assay procedure not described here.

Sequence of Voltage-dependent L-type calcium channel subunit alpha-1C (P22002 whole entry): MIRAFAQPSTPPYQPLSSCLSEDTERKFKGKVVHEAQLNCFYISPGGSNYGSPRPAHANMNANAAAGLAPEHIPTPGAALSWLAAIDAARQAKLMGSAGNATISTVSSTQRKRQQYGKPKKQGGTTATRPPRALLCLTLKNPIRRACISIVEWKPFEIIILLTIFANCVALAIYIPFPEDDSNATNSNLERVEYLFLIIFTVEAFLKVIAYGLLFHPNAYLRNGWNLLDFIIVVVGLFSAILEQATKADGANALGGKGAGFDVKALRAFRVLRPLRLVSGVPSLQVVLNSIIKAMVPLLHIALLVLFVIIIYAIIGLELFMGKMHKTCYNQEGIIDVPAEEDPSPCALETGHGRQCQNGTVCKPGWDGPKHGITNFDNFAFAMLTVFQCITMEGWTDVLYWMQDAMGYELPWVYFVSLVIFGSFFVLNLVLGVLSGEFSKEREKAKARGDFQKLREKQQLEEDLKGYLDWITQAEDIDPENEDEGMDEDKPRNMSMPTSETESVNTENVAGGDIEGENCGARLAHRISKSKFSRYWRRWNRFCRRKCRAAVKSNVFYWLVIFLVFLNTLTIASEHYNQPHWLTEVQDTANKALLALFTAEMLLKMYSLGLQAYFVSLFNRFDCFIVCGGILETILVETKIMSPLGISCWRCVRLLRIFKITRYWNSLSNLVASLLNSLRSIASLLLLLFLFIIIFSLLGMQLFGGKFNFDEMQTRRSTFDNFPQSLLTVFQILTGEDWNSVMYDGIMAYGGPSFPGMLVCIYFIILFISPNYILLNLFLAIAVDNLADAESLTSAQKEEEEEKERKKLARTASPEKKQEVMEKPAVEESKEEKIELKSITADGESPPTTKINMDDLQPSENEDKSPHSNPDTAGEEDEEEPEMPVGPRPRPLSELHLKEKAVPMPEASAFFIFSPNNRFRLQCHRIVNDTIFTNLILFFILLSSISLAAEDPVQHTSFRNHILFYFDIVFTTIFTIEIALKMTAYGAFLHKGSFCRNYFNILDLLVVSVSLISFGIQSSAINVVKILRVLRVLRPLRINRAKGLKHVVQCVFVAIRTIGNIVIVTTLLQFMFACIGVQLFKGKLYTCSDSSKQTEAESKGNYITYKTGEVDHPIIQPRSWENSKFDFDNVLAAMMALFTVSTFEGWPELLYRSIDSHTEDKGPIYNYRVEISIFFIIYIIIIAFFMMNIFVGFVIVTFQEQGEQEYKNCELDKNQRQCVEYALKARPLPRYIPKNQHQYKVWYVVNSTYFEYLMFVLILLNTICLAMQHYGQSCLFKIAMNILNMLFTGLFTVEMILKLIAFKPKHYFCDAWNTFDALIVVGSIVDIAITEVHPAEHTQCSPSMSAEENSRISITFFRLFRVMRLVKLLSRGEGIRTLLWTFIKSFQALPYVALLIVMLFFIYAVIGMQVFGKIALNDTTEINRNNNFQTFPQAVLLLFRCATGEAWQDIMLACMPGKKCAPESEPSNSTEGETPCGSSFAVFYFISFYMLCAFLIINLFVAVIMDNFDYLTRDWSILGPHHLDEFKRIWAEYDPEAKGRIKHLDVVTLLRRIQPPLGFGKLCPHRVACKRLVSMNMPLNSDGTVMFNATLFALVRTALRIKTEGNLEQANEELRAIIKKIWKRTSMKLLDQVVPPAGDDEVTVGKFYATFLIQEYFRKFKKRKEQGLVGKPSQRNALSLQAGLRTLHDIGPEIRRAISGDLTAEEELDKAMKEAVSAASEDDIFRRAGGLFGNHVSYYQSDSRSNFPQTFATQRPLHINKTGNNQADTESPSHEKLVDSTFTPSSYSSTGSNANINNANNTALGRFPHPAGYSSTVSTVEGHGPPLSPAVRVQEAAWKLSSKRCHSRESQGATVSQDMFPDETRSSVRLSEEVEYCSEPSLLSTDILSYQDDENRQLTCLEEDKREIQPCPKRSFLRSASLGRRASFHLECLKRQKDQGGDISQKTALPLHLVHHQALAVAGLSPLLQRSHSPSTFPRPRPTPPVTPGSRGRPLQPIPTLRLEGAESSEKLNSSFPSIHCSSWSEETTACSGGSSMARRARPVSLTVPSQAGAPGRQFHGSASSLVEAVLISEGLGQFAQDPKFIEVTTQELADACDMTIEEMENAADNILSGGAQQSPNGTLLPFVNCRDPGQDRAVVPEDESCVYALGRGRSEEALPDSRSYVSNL
Sequence of Kappa-type opioid receptor (P41145 whole entry): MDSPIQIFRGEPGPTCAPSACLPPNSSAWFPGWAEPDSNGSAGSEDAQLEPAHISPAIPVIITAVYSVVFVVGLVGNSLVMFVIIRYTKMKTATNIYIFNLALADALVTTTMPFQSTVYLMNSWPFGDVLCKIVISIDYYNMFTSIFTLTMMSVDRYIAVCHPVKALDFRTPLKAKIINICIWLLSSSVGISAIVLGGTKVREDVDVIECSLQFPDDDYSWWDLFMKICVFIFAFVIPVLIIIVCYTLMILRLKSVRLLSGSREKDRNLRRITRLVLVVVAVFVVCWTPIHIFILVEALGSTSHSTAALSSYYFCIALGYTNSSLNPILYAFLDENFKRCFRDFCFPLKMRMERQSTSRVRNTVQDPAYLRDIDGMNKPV

Regarding `O=C(O)c1ccc2nc(-c3cc(Cl)cc(Cl)c3)oc2c1`, the half-maximal activity concentration (AC50) (as a rule, the concentration giving half of the maximal activity seen) in assay [1] was greater than 30 µM; in assay [2], greater than 30 µM; in assay [3] it was greater than 30 µM; in [4], greater than 30 µM; in assay [5], greater than 1 µM; in assay [6] it was greater than 30 µM. The AC50 in assay [7], in assay [8], in assay [9], in [10], in assay [11] and in assay [12] was greater than 30 µM throughout. The AC50 is 12 µM in [13], greater than 30 µM in assay [14] and greater than 30 µM in assay [15].
With `NS(=O)(=O)c1ccc(N2CCCCS2(=O)=O)cc1`, the AC50 is greater than 30 µM in assay [2]; greater than 30 µM in [3]; 21 µM in [4]; greater than 30 µM in assay [5]; greater than 30 µM in [6]; greater than 30 µM in [7]. Moreover, the AC50 in assay [8], in assay [9], in assay [10], in [11], in [12] and in assay [13] was greater than 30 µM each time. In addition, the concentration at half-maximal activity (AC50) in [16], in assay [14] and in assay [15] was greater than 30 µM each time.
As to `CNCCc1ccccn1` [BETAHISTINE], the AC50 in assay [1], in assay [2], in assay [3], in assay [4], in [5] and in assay [7] was greater than 30 µM in each case. The AC50 in assay [8], in assay [9], in assay [10], in assay [12], in assay [13] and in [16] was greater than 30 µM in each case. Further, the AC50 in assay [14] and in [15] was greater than 30 µM in each case.
Regarding `CCCCOC(=O)c1ccc(N)cc1` [BUTAMBEN], the AC50 in assay [1], in assay [2], in assay [3], in [4], in [5] and in [7] was greater than 30 µM in each case. The AC50 in [8], in assay [9], in [10], in [12], in assay [13] and in assay [16] was greater than 30 µM in each case. The half-maximal activity concentration (AC50) in assay [14] and in [15] was greater than 30 µM throughout.
Turning to `CCc1ccc(C(=O)C(C)CN2CCCCC2)cc1` (stereo not drawn) [EPERISONE], the concentration at half-maximal activity (AC50) in assay [1] is greater than 30 µM; in assay [2] it was greater than 30 µM; in assay [3], 1.57 µM; in assay [4] it was greater than 30 µM; in assay [5], 9.4 µM; in assay [7], greater than 30 µM. Besides, the AC50 in assay [8], in assay [9], in [10], in [12], in assay [13] and in assay [14] was greater than 30 µM each time. The molecule also displayed an AC50 in assay [15] greater than 30 µM.
For the molecule `CC(=O)OCC(=O)[C@@]1(O)CC[C@H]2[C@@H]3CCC4=CC(=O)CC[C@]4(C)[C@@]3(F)[C@@H](O)C[C@@]21C` [FLUDROCORTISONE ACETATE], the concentration at half-maximal activity (AC50) in assay [1], in [2], in assay [3], in assay [4], in [5] and in assay [7] was greater than 30 µM in each case. In addition, the AC50 in assay [8], in assay [9], in [10], in [12], in assay [13] and in [16] was greater than 30 µM in each case. Also, the AC50 in [14] and in assay [15] was greater than 30 µM in each case.
As for `CCC(NC(C)C)C(O)c1ccc(O)c(O)c1` (stereo not drawn) [ISOETHARINE], the AC50 is greater than 30 µM in assay [1]; greater than 30 µM in assay [2]; greater than 30 µM in assay [3]; 8.95 µM in [4]; greater than 30 µM in [5]; greater than 30 µM in assay [6]. Moreover, the half-maximal activity concentration (AC50) was greater than 30 µM in [7]; greater than 30 µM in [8]; 19.6 µM in [9]; greater than 30 µM in assay [10]; greater than 30 µM in assay [11]; greater than 30 µM in assay [12]. Besides, the AC50 was greater than 30 µM in [13], greater than 30 µM in assay [14] and 5.43 µM in [15].
Consider `CN1CCCN=C1/C=C/c1cccc(O)c1` [OXANTEL], for which the half-maximal activity concentration (AC50) in assay [1] was greater than 30 µM; in [2], greater than 30 µM; in [3], 6.2 µM; in assay [4], 20 µM; in assay [5], greater than 30 µM; in assay [6], greater than 30 µM. The AC50 in assay [7], in assay [8], in [9], in assay [10], in assay [11] and in assay [12] was greater than 30 µM each time. The AC50 in [13], in [16] and in assay [14] was greater than 30 µM in each case.
As to `CCCCC[C@H](O)CC[C@@H]1[C@H]2Cc3cccc(OCC(=O)O)c3C[C@H]2C[C@H]1O` [TREPROSTINIL], the half-maximal activity concentration (AC50) in assay [2], in assay [3], in assay [4], in [5], in assay [6] and in assay [7] was greater than 30 µM throughout. The AC50 in [8], in assay [9], in assay [10], in assay [11], in assay [12] and in assay [13] was greater than 30 µM each time. The concentration at half-maximal activity (AC50) in [16] and in assay [14] was greater than 30 µM throughout.
As for `CCCCCCCC(=O)CC[C@@H]1[C@@H](C/C=C\CCCC(=O)O)[C@@H](O)C[C@H]1O` [UNOPROSTONE], the AC50 in [2], in [3], in assay [4], in assay [5], in assay [6] and in assay [7] was greater than 30 µM in each case. For the same molecule, the AC50 in [8], in assay [9], in assay [10], in assay [11], in assay [12] and in assay [13] was greater than 30 µM in each case. In addition, the half-maximal activity concentration (AC50) in assay [16] and in assay [14] was greater than 30 µM each time.

Source of the values: ChEMBL document CHEMBL5291721, “A preclinical secondary pharmacology resource illuminates target-adverse drug reaction associations of marketed drugs” (Nat Commun, 2023).
